Source: ChEMBL document CHEMBL3880386, “Combination comprising the MEK inhibitor N-{3-[3-cyclopropyl-5-(2-fluoro-4-iodo- phenylamino)-6,8-dimethyl-2,4,7-trioxo-3,4,6,7-tetrahydro-2H-pyrido[4,3-d]pyrimidin-1-yl]phenyl}acetamide and the Akt inhibitor N-{(1S)-2-amino-1-[(3-fluorophenyl)methyl]ethyl}-5-chloro-4-(4-chloro-1- …” (2014)

Columns and labels:
[1] = (§1) Growth inhibition of human KM12 cells at 1:10 molar ratio of compound in presence of N-{3-[3-cyclopropyl-5-(2-fluoro-4-iodo-phenylamino)-6,8-dimethyl- 2,4,7-trioxo-3,4,6,7-tetrahydro-2H-pyrido[4,3-d]pyrimidin-1-yl]phenyl}acetamide incubated for 72 hrs by Cell-titer-Glo reagent based assay; assay type: functional; settings: KM12, 72 h
[2] = Growth inhibition of human SW480 cells at 1:10 molar ratio of compound in presence of N-{3-[3-cyclopropyl-5-(2-fluoro-4-iodo-phenylamino)-6,8-dimethyl- 2,4,7-trioxo-3,4,6,7-tetrahydro-2H-pyrido[4,3-d]pyrimidin-1-yl]phenyl}acetamide incubated for 72 hrs by Cell-titer-Glo reagent based assay; assay type: functional; settings: SW480, 72 h
[3] = Growth inhibition of human NCI-H1355 cells at 1:10 molar ratio of compound in presence of N-{3-[3-cyclopropyl-5-(2-fluoro-4-iodo-phenylamino)-6,8-dimethyl- 2,4,7-trioxo-3,4,6,7-tetrahydro-2H-pyrido[4,3-d]pyrimidin-1-yl]phenyl}acetamide incubated for 72 hrs by Cell-titer-Glo reagent based assay; assay type: functional; settings: NCI-H1355, 72 h
[4] = Growth inhibition of human NCI-H1155 cells at 1:10 molar ratio of compound in presence of N-{3-[3-cyclopropyl-5-(2-fluoro-4-iodo-phenylamino)-6,8-dimethyl- 2,4,7-trioxo-3,4,6,7-tetrahydro-2H-pyrido[4,3-d]pyrimidin-1-yl]phenyl}acetamide incubated for 72 hrs by Cell-titer-Glo reagent based assay; assay type: functional; settings: NCI-H1155, 72 h
[5] = as §1, with “LS1034” for “KM12”, “cells assessed combination index” for “cells”; assay type: functional, LS-1034
[6] = as §1, with “SW1463” for “KM12”, “cells assessed combination index” for “cells”; assay type: functional
[7] = as §1, with “HT-29” for “KM12”, “cells assessed combination index” for “cells”; assay type: functional
[8] = as §1, with “NCI-H23” for “KM12”, “cells assessed combination index” for “cells”; assay type: functional
[9] = Growth inhibition of human HOP62 cells at 1:10 molar ratio of compound in presence of N-{(1S)-2-amino-1-[(3-fluorophenyl)methyl]ethyl}-5-chloro-4-(4-chloro-1-methyl-1H-pyrazol-5-yl)-2-thiophenecar- boxamide incubated for 72 hrs by Cell-titer-Glo reagent based assay; assay type: functional; settings: HOP-62, 72 h
[10] = Growth inhibition of human LS1034 cells assessed combination index at 1:10 molar ratio of compound in presence of N-{(1S)-2-amino-1-[(3-fluorophenyl)methyl]ethyl}-5-chloro-4-(4-chloro-1-methyl-1H-pyrazol-5-yl)-2-thiophenecar- boxamide incubated for 72 hrs by Cell-titer-Glo reagent based assay; assay type: functional, LS-1034
[11] = Growth inhibition of human HT-29 cells assessed combination index at 1:10 molar ratio of compound in presence of N-{(1S)-2-amino-1-[(3-fluorophenyl)methyl]ethyl}-5-chloro-4-(4-chloro-1-methyl-1H-pyrazol-5-yl)-2-thiophenecar- boxamide incubated for 72 hrs by Cell-titer-Glo reagent based assay; assay type: functional
[12] = Growth inhibition of human NCI-H1355 cells assessed combination index at 1:10 molar ratio of compound in presence of N-{(1S)-2-amino-1-[(3-fluorophenyl)methyl]ethyl}-5-chloro-4-(4-chloro-1-methyl-1H-pyrazol-5-yl)-2-thiophenecar- boxamide incubated for 72 hrs by Cell-titer-Glo reagent based assay; assay type: functional
[13] = Growth inhibition of human Calu6 cells assessed combination index at 1:10 molar ratio of compound in presence of N-{(1S)-2-amino-1-[(3-fluorophenyl)methyl]ethyl}-5-chloro-4-(4-chloro-1-methyl-1H-pyrazol-5-yl)-2-thiophenecar- boxamide incubated for 72 hrs by Cell-titer-Glo reagent based assay; assay type: functional, Calu-6

For `Cn1ncc(Cl)c1-c1cc(C(=O)N[C@H](CN)Cc2cccc(F)c2)sc1Cl` [AFURESERTIB], which IC50 [1] is on record?
The IC50 was 104 nM.

And the IC50 [2]?
Its IC50 is 259 nM.

And the IC50 [3]?
The IC50 was 268 nM.

And the IC50 [4]?
Its IC50 is 101 nM.

And the CI [5]?
Its CI is 0.84.

And the CI [6]?
The CI was 0.94.

And the CI [7]?
Its CI is 0.95.

And the CI [8]?
The CI was 0.76.

Which results are given for `CC(=O)Nc1cccc(-n2c(=O)n(C3CC3)c(=O)c3c(Nc4ccc(I)cc4F)n(C)c(=O)c(C)c32)c1` [TRAMETINIB]?
IC50 [9]: 50 nM; CI [10]: 0.84; CI [11]: 0.95; CI [12]: 0.57; CI [13]: 0.79
